# Test results taken from US8481523B2, “Biocide composition comprising pyrithione and pyrrole derivatives” (Arch Chemicals, Inc., priority 2006, dated 2013).
# “Also recorded” adds a separate entry of the source.
# Tested on: barnacles
# Experiment: Paint efficacy testing: coated fiberglass rods suspended in the ocean, number of barnacles counted monthly
# Assay type: in vivo
# Conditions: paint formulations on rods in the ocean, Beaufort, N.C. coast, 2004
# Procedure: A series of nine paint formulations containing 4-bromo-2-(4-chlorophenyl)-5-(trifluoromethyl)-1H-pyrrole-3-carbonitrile (referred to in below table as Pyrrole) and zinc pyrithione (ZPT) were tested by Duke University off the Beaufort, N.C. coast in 2004 for their antifouling effectiveness against barnacles and other fouling organisms. The formulations were created in the laboratory by the addition of various amounts of biocides to a resin base-formulation (vinyl resin/wood rosin with Zn oxide filler). Formulations include 4-bromo-2-(4-chlorophenyl)-5-(trifluoromethyl)-1H-pyrrole-3-carbonitrile alone and in combination with ZPT. A solvent based zinc oxide coating was used as a control. Unprimed fiberglass rods (8 mm diameter×11 cm length) were dip-coated with each formulation (5 rods/formulation) and suspended from a test rack in the ocean (one-meter below the surface). Rods were evaluated each month for number of barnacles and bryozoans. The most promising results came from the formulations in which 4-bromo-2-(4-chlorophenyl)-5-(trifluoromethyl)-1H-pyrrole-3-carbonitrile was blended with ZPT (See Table 1 below).
compound,measurement,value
N#Cc1c(-c2ccc(Cl)cc2)[nH]c(C(F)(F)F)c1Br [4-bromo-2-(4-chlorophenyl)-5-(trifluoromethyl)-1H-pyrrole-3-carbonitrile],antifouling effectiveness against barnacles and other fouling organisms (in words),effective antifouling agent for hard fouling organisms such as barnacles; also recorded: performs better with ZPT as a co-biocide than it does alone
